Counter-ions that a name gives are not always drawn. Like-named read-outs stand apart in the source and are kept apart here.
Key:
[1] = cited from earlier work
[2] = Bench scale groundwater treatment with peroxide-coated ozone nanobubbles (1260 ppmV O3, 10% H2O2); format: physicochemical; conditions: for PFC concentration in groundwater, 1 HR: 1260 ppmV O3, 10% H2O2, 1 HR; for PFC concentration in groundwater, 2 HR: 1260 ppmV O3, 10% H2O2, 2 HR; for % REMOVAL from groundwater: 1260 ppmV O3, 10% H2O2, start to last time point; for PFC concentration in groundwater, START: untreated start (0 minutes)
Description: (§1) On one foam fire-fighting site, samples of groundwater from monitoring well 1 (MW1) and soil samples between MW1 and monitoring well 3 (MW3) were shipped to the laboratory in coolers with blue ice packing to maintain the temperature at less than 4.4° C. (40° F.). Two sets of tests were conducted, groundwater and soil treatment.
Bench scale tests were conducted in a pressurized glass cylindrical reaction cell (17-20 psi) holding a laminar stainless steel spargepoint with a 0.20-micron porous surface. Four liters of groundwater were mixed together. A liter of distilled water as a blank was treated and set aside for analysis. The first liter of groundwater was also set aside as “start” condition (0 minutes). One liter of groundwater from MW1 was added to the cell. An ozone flow of 5 cm^3/sec was added at 1260 ppmV. Peroxide (10%) flow was 8 cm^3/minute and treated for 30 minutes. Pressure was 17-20 psi.
A second liter was added to the chamber and treated for 60 minutes. The blank, original (start), 30 minute, and 60 minute samples were placed in ice for analysis. A final sample (120 minute) was treated with 60 minutes of peroxide, but ozone continued for 120 minutes.

[3] = as above; format: physicochemical; conditions: 1260 ppmV O3, 10% H2O2, 3 HR
[4] = Bench scale soil treatment (2400 ppmV O3), groundwater over soil slurry; format: physicochemical; conditions: for PFC concentration in groundwater over soil slurry, 30 MIN / PFC concentration in groundwater over soil slurry, 60 MIN / PFC concentration in groundwater over soil slurry, 120 MIN / % REMOVAL in groundwater over soil slurry: 2400 ppmV O3, 10% peroxide; for % REMOVAL in groundwater over soil slurry: start to 120 MIN
Description: as §1
(§2) For soil samples, 1000 cm^3 of soil was mixed together and then separated into four 250 cm^3 aliquots. The first was submitted as background (start) condition. The remaining three were treated with a fine bubble-coated ozone bubble solution from the pressurized generator (20-25 psi). The ozone concentration was 2400 ppmV with a flow of 5 cm^3/sec. The peroxide was 10% solution and supplied at 5 cm^3/min flow. The generator was filled with 500 liters of groundwater from the site well (MW1) which was delivered in 50 cm^3 surges to a two-liter flask with the soil under constant stirring action. The subsequent reaction raised the temperature of the soil/liquid solution from 20.6° C. (69° F.) to 22.8° C. (73° F.) after 10 minutes, reaching 41.1° C. (106° F.) after 30 minutes. For the 30-minute treatment, no further bubble solution was added; the flask was placed over water until bubbling ceased or two hours and then placed in chilled water. The overlying groundwater was decanted off, and the underlying semi-solid was placed in a glass jar and chilled for transport for analysis. A similar procedure was followed for the 60- and 120-minute soil aliquots.

[5] = Bench scale soil treatment with peroxide-coated ozone nanobubbles (2400 ppmV O3), soil fraction; format: physicochemical; conditions: for decomposing the other PF compounds (removal) by the new solution: matrix not given; for removal in the soil series: 2400 ppmV O3, 41.1° C. to 43.3° C.
Description: as §1, §2

[6] = cited from earlier work; for Water Solubility: at 25° C.
[7] = cited from earlier work; remark: listed apart in the source
[8] = cited from earlier work; remark: listed apart in the source
[9] = 155 mg/L PFOA, 12 g/L persulfate, 80° C., cited from earlier work
[10] = cited from earlier work; remark: listed apart in the source

Structure (SMILES) | Acidity (pKa) [1] | PFC concentration in groundwater, 1 HR [2] | PFC concentration in groundwater, 2 HR [2] | % REMOVAL from groundwater [2] | PFC concentration in groundwater, START [2] | PFC concentration in groundwater, 3 HR [3] | PFC concentration in groundwater over soil slurry, 30 MIN [4] | PFC concentration in groundwater over soil slurry, 60 MIN [4] | PFC concentration in groundwater over soil slurry, 120 MIN [4] | % REMOVAL in groundwater over soil slurry [4] | PFC concentration in groundwater over soil slurry, START [4] | decomposing the other PF compounds (removal) by the new solution [5] | further results
OO [H2O2, hydrogen peroxide] | 11.7 |  |  |  |  |  |  |  |  |  |  |  | 
O=C(O)C(F)(F)C(F)(F)C(F)(F)C(F)(F)C(F)(F)F [PFHxA, perfluorohexanoic acid] |  | 110 | 150 | 69.2% | 270 | 86 | 75 | 34 | 23 | 91.5% | 270 | 86.2% | 
O=S(=O)(O)C(F)(F)C(F)(F)C(F)(F)C(F)(F)C(F)(F)C(F)(F)F [PFHxS, perfluorohexane sulfonate] |  | 100 | 110 | 86% | 300 | 42 | 87 | 14 | 8 | 97.4% | 300 | 98.1% | 
O=C(O)C(F)(F)C(F)(F)C(F)(F)C(F)(F)C(F)(F)C(F)(F)C(F)(F)F [PFOA, perfluorooctanoic acid] | 0 | 17 | 13 | 73.6% | 34 | 9 | 22 | 4 | 3 | 91.2% | 34 |  | Solubility in water ([6]; Table 2): Soluble, 9.5 g/L; Water Solubility ([6]; purified): 9.5 × 10^3 (purified) mg/L; PFOA degraded ([7]; 1 M H2O2 and 0.5 mM iron (III), within 150 minutes): 94%; PFOA degradation ([7]; reactions generating O2^− or HO2^− alone): degraded rapidly; Solubility in other solvents [8]: Polar organic solvents; Fluoride ions formed (molar ratio) ([9]; 6 hours): 77.5%; carbon dioxide formed (molar ratio) ([9]; 6 hours): 70.2%; aqueous phase PFOA concentration after treatment ([9]; after 6 hours, 0.6 mg/L = detection limit): less than 0.6 mg/L; Vapor Pressure at 20° C. [10]: 0.017 mm Hg; removal in the soil series [5]: over 97%
O=S(=O)(O)C(F)(F)C(F)(F)C(F)(F)C(F)(F)C(F)(F)C(F)(F)C(F)(F)C(F)(F)F [PFOS (Potassium Salt)] |  |  |  |  |  |  |  |  |  |  |  |  | Water Solubility ([6]; filtered seawater): (freshwater), 25 (filtered mg/L; Water Solubility ([6]; freshwater): 370 mg/L; Vapor Pressure at 20° C. [10]: 2.48 × 10^−6 mm Hg
O=S(=O)(O)C(F)(F)C(F)(F)C(F)(F)C(F)(F)C(F)(F)C(F)(F)C(F)(F)C(F)(F)F [PFOS, perfluorooctane sulfonate] | <<0 | 150 | 160 | 82.3% | 430 | 76 | 340 | 33 | 44 | 89.8% | 430 |  | removal in the soil series [5]: over 99%
O=C(O)C(F)(F)C(F)(F)C(F)(F)C(F)(F)F [PFPeA, perfluoropentanoic acid] |  | 27 | 23 | 82.1% | 84 | 15 | 13 | 8 | 6 | 92.9% | 84 | 89.8% | 

— US9694401B2, “Method and apparatus for treating perfluoroalkyl compounds” (ThinkVillage-Kerfoot, LLC, priority 2013, dated 2017)
